# Experimental data reported in PubChem BioAssay AID214 (DTP/NCI, 2004).
# Values joined by “and” are separate entries in the source; they are usually repeats but may differ in a detail not shown here. Identical values can stand only once. Records with an inconclusive call do not appear.
# Tested on: B6C3F1 mice, colon carcinoma 38 s.c., T/C
# Assay: NCI In Vivo Anticancer Drug Screen. Data for tumor model Colon Carcinoma 38 (subcutaneous) in B6C3F1 mice
# Conditions: endpoint: median tumor weight (est.), higher = larger tumour
# Experimental: The antitumor activity of compounds was measured in mice bearing transplantable tumors. Survival or tumor size were measured and the results are expressed as the measurement made in the treated group (T) divided by the measurement made in the vehicle treated control group (C). The tumor model used in this assay is Colon Carcinoma 38 (subcutaneous) in B6C3F1 mice
# [1] = dose: 200.0 mg/kg/injection, schedule: Q07DX002 (ip), vehicle: saline with Tween-80
# [2] = dose: 400.0 mg/kg/injection, schedule: Q07DX002 (ip), vehicle: saline with Tween-80
# [3] = dose: 800.0 mg/kg/injection, schedule: Q07DX002 (ip), vehicle: saline with Tween-80
# [4] = dose: 100.0 mg/kg/injection, schedule: Q07DX002 (ip), vehicle: saline with Tween-80
# [5] = dose: 25.0 mg/kg/injection, schedule: Q07DX002 (ip), vehicle: saline
# [6] = dose: 50.0 mg/kg/injection, schedule: Q07DX002 (ip), vehicle: saline
# [7] = dose: 100.0 mg/kg/injection, schedule: Q07DX002 (ip), vehicle: saline
# [8] = dose: 200.0 mg/kg/injection, schedule: Q07DX002 (ip), vehicle: saline
# [9] = dose: 400.0 mg/kg/injection, schedule: Q07DX002 (ip), vehicle: saline
# [10] = dose: 6.25 mg/kg/injection, schedule: Q07DX002 (ip), vehicle: saline
# [11] = dose: 100.0 mg/kg/injection, schedule: Q07DX002 (ip), vehicle: Klucel (hydroxypropylcellulose) (HPC)
# [12] = dose: 12.5 mg/kg/injection, schedule: Q07DX002 (ip), vehicle: water
# [13] = dose: 50.0 mg/kg/injection, schedule: Q07DX002 (ip), vehicle: water
structure (smiles),measurement,setting,value
Oc1cc2ccccc2c(-c2c(O)c(O)cc3ccccc23)c1O,T/C,[1],70 % of control
same,T/C,[2],62 % of control
same,T/C,[3],104 % of control
NC(CSC(c1ccccc1)(c1ccccc1)c1ccccc1)C(=O)O (stereo not given),T/C,"dose: 32.0 mg/kg/injection, schedule: Q07DX002 (ip), vehicle: saline with Tween-80",87 % of control
same,T/C,"dose: 32.0 mg/kg/injection, schedule: Q07DX003 (ip), vehicle: saline with Tween-80",46 % of control
same,T/C,"dose: 64.0 mg/kg/injection, schedule: Q07DX002 (ip), vehicle: saline with Tween-80",81 % of control
same,T/C,"dose: 64.0 mg/kg/injection, schedule: Q07DX003 (ip), vehicle: saline with Tween-80",105 % of control
same,T/C,"dose: 128.0 mg/kg/injection, schedule: Q07DX002 (ip), vehicle: saline with Tween-80",63 % of control
same,T/C,"dose: 128.0 mg/kg/injection, schedule: Q07DX003 (ip), vehicle: saline with Tween-80",72 % of control
same,T/C,"dose: 256.0 mg/kg/injection, schedule: Q07DX002 (ip), vehicle: saline with Tween-80",30 % of control
same,T/C,"dose: 256.0 mg/kg/injection, schedule: Q07DX003 (ip), vehicle: saline with Tween-80",45 % of control
same,T/C,"dose: 512.0 mg/kg/injection, schedule: Q07DX002 (ip), vehicle: saline with Tween-80",2 % of control
O=P1(NCCCl)OCCCN1CCCl (stereo not given),T/C,"dose: 30.0 mg/kg/injection, schedule: Q01DX006 (ip), vehicle: saline",61 % of control
COc1cc2c[n+](C)c3c(c2cc1OC)Cc1cc2c(cc1-3)OCO2,T/C,"dose: 50.0 mg/kg/injection, schedule: Q07DX002 (ip), vehicle: saline with Tween-80",94 % of control
same,T/C,[4],107 % of control
same,T/C,[1],97 % of control
same,T/C,[2],85 % of control
NC(=O)c1ccc[n+](Cc2c(Cl)cccc2Cl)c1,T/C,[5],86 % of control
same,T/C,[6],94 % of control
O=C(O)Cc1cccc2c(=O)cc(Cc3ccccc3)oc12,T/C,[7],60 % of control
same,T/C,[8],111 % of control
same,T/C,[9],122 % of control
NC(=O)CCC(N)C(=O)O (stereo not given),T/C,"dose: 75.0 mg/kg/injection, schedule: Q07DX002 (ip), vehicle: suspension in saline",113 % of control
same,T/C,"dose: 150.0 mg/kg/injection, schedule: Q07DX002 (ip), vehicle: suspension in saline",43 % of control
same,T/C,"dose: 300.0 mg/kg/injection, schedule: Q07DX002 (ip), vehicle: suspension in saline",84 % of control
same,T/C,"dose: 600.0 mg/kg/injection, schedule: Q07DX002 (ip), vehicle: suspension in saline",101 % of control
same,T/C,"dose: 1200.0 mg/kg/injection, schedule: Q07DX002 (ip), vehicle: suspension in saline",91 % of control
CC(C)CCC(=O)c1ccoc1,T/C,"dose: 0.25 mg/kg/injection, schedule: Q03HX006 (ip), vehicle: saline with Tween-80",56 % of control
same,T/C,"dose: 0.5 mg/kg/injection, schedule: Q03HX006 (ip), vehicle: saline with Tween-80",56 % of control
same,T/C,"dose: 1.0 mg/kg/injection, schedule: Q03HX006 (ip), vehicle: saline with Tween-80",81 % of control
same,T/C,"dose: 2.0 mg/kg/injection, schedule: Q03HX006 (ip), vehicle: saline with Tween-80",87 % of control
O=c1c(O)c(-c2cc(O)c(O)c(O)c2)oc2cc(O)cc(O)c12,T/C,"dose: 600.0 mg/kg/injection, schedule: Q07DX002 (ip), vehicle: saline with Tween-80",95 % of control
O=C(O)Cc1cccc2c(=O)cc(C3CCCCC3)oc12,T/C,[7],90 % of control
same,T/C,[9],82 % of control
O=P1(N(CCCl)CCCl)NCCCO1 (stereo not given),T/C,[5],44 % of control
same,T/C,[6],52 % of control
same,T/C,[7],13 % of control
same,T/C,[8],7 % of control
Cc1cc(NCCCN(C)C)c2ccc3c(ccc4c(NCCCN(C)C)cc(C)nc43)c2n1,T/C,"dose: 0.78 mg/kg/injection, schedule: Q07DX002 (ip), vehicle: saline",97 % of control
same,T/C,"dose: 1.56 mg/kg/injection, schedule: Q07DX002 (ip), vehicle: saline",91 % of control
same,T/C,"dose: 3.12 mg/kg/injection, schedule: Q07DX002 (ip), vehicle: saline",115 % of control
same,T/C,[10],100 % of control
CC[C@@H](C)[C@@H]1NC(=O)C(NC(=O)C(CC(C)C)N(C)C(=O)C2CCCN2C(=O)C(C)O)C(C)OC(=O)C(Cc2ccc(OC)cc2)N(C)C(=O)C2CCCN2C(=O)C(CC(C)C)NC(=O)C(C)C(=O)C(C(C)C)OC(=O)C[C@H]1O (stereo not given in full),T/C,"dose: 600.0 micrograms/kg/injection, schedule: Q07DX002 (ip), vehicle: distilled water + alcohol",118 % of control
O=C(O)Cc1cccc2c(=O)c(-c3ccccc3)c(-c3ccccc3)oc12,T/C,[11],11 % of control
Cn1c(=O)[nH]c2nncnc2c1=O,T/C,[12],104 % of control and 112 % of control
same,T/C,[13],117 % of control and 119 % of control
same,T/C,"dose: 100.0 mg/kg/injection, schedule: Q07DX002 (ip), vehicle: water",120 % of control
S=C(NCNC(=S)c1ccncc1)c1ccncc1,T/C,[4],70 % of control
same,T/C,[1],104 % of control
same,T/C,[2],70 % of control
same,T/C,[3],66 % of control
Oc1ccc(CCl)c2cccnc12,T/C,[5],91 % of control
same,T/C,[6],105 % of control
same,T/C,[7],94 % of control
same,T/C,[8],106 % of control
C[C@@]1(CO)[C@H](O)CC[C@@]2(C)[C@H]1CC[C@H]1C[C@@H]3C[C@@]12CC[C@@]3(O)COC(=O)CN,T/C,"dose: 0.4 mg/kg/injection, schedule: Q07DX002 (ip), vehicle: saline + alcohol",61 % of control
same,T/C,"dose: 0.8 mg/kg/injection, schedule: Q07DX002 (ip), vehicle: saline + alcohol",88 % of control
same,T/C,"dose: 1.6 mg/kg/injection, schedule: Q07DX002 (ip), vehicle: saline + alcohol",54 % of control
same,T/C,"dose: 3.2 mg/kg/injection, schedule: Q07DX002 (ip), vehicle: saline + alcohol",63 % of control
same,T/C,"dose: 6.4 mg/kg/injection, schedule: Q07DX002 (ip), vehicle: saline + alcohol",106 % of control
CNC(=O)c1cccc2c(Nc3ccc(NS(C)(=O)=O)cc3OC)c3cccc(C)c3nc12,T/C,"dose: 6.25 mg/kg/injection, schedule: Q07DX002 (ip), vehicle: water",60 % of control
same,T/C,[12],48 % of control
same,T/C,"dose: 25.0 mg/kg/injection, schedule: Q07DX002 (ip), vehicle: water",17 % of control
same,T/C,[13],4 % of control
O=C1C2CC(Cl)C(SSC3CC4C(=O)N(SC(Cl)(Cl)C(Cl)Cl)C(=O)C4CC3Cl)CC2C(=O)N1SC(Cl)(Cl)C(Cl)Cl (stereo not given),T/C,"dose: 25.0 mg/kg/injection, schedule: Q07DX002 (ip), vehicle: Klucel (hydroxypropylcellulose) (HPC)",91 % of control
same,T/C,"dose: 50.0 mg/kg/injection, schedule: Q07DX002 (ip), vehicle: Klucel (hydroxypropylcellulose) (HPC)",66 % of control
same,T/C,[11],74 % of control
Cc1cc(NS(=O)(=O)c2ccc(N=Nc3cc(N=Nc4ccc(S(=O)(=O)Nc5cc(C)nc(C)n5)cc4)c4c(NC(=O)C(Cl)Cl)cccc4c3OC(=O)C(Cl)Cl)cc2)nc(C)n1 (tested in a mixture with another compound),T/C,"dose: 25.0 mg/kg/injection, schedule: Q07DX002 (ip), vehicle: suspension in saline",111 % of control
same,T/C,"dose: 400.0 mg/kg/injection, schedule: Q07DX002 (ip), vehicle: suspension in saline",114 % of control
Cc1ccoc1,T/C,"dose: 16.8 mg/kg/injection, schedule: Q03HX006 (ip), vehicle: saline with Tween-80",75 % of control
same,T/C,"dose: 33.33 mg/kg/injection, schedule: Q03HX006 (ip), vehicle: saline with Tween-80",109 % of control
same,T/C,"dose: 66.66 mg/kg/injection, schedule: Q03HX006 (ip), vehicle: saline with Tween-80",114 % of control
same,T/C,"dose: 133.33 mg/kg/injection, schedule: Q03HX006 (ip), vehicle: saline with Tween-80",108 % of control
COc1cc2c(ccc3c4cc(OC)c(OC)cc4c[n+](C)c23)cc1O,T/C,"dose: 100.0 mg/kg/injection, schedule: Q07DX002 (ip), vehicle: suspension in saline",89 % of control
same,T/C,"dose: 200.0 mg/kg/injection, schedule: Q07DX002 (ip), vehicle: suspension in saline",81 % of control
C(=N/NC1=NCCN1)/c1c2ccccc2c(/C=N\NC2=NCCN2)c2ccccc12,T/C,[10],100 % of control
same,T/C,"dose: 12.5 mg/kg/injection, schedule: Q07DX002 (ip), vehicle: saline",55 % of control
same,T/C,[5],112 % of control
same,T/C,[6],81 % of control
same,T/C,[7],36 % of control
